Results reported in ChEMBL document CHEMBL3822404, “Design, synthesis and biological evaluation of novel 3-alkylsulfanyl-4-amino-1,2,4-triazole derivatives” (Bioorg Med Chem Lett, 2016).
pIC50: −log10 of the molar value.

Legend:
[1] = tested on: HeLa; assay: Antiproliferative activity against human HeLa cells measured after 48 hrs by MTT assay; assay type: functional, cell-based
[2] = tested on: HepG2; assay: Antiproliferative activity against human HepG2 cells measured after 48 hrs by MTT assay; assay type: functional, cell-based; details: HepG2, 48 h
[3] = Antiproliferative activity against human PC3 cells measured after 48 hrs by MTT assay; assay type: functional, cell-based; details: PC-3, 48 h
[4] = Antiproliferative activity against human HCT116 cells measured after 48 hrs by MTT assay; assay type: functional, cell-based; details: HCT-116, 48 h
[5] = tested on: HEK293; assay: Cytotoxicity against HEK293 cells measured after 48 hrs by MTT assay; assay type: cell-based; details: Homo sapiens, HEK293, 48 h
[6] = tested on: HeLa; assay: Induction of cell cycle arrest in human HeLa cells assessed as accumulation at G2/M phase at 2 uM measured after 12 to 18 hrs by […] cell sorting analysis (reference value: 16.67%); assay type: functional
[7] = tested on: HeLa; assay: Induction of cell cycle arrest in human HeLa cells assessed as accumulation at G2/M phase at 8 uM measured after 12 to 18 hrs by […] cell sorting analysis (reference value: 16.67%); assay type: functional
[8] = tested on: HeLa; assay: Induction of cell cycle arrest in human HeLa cells assessed as accumulation at G0/G1 phase at 2 uM measured after 12 to 18 hrs by […] cell sorting analysis (reference value: 64.31%); assay type: functional
[9] = tested on: HeLa; assay: Induction of cell cycle arrest in human HeLa cells assessed as accumulation at S phase at 8 uM measured after 12 to 18 hrs by […] cell sorting analysis (reference value: 19.02%); assay type: functional
[10] = tested on: HeLa; assay: Induction of cell cycle arrest in human HeLa cells assessed as accumulation at S phase at 4 uM measured after 12 to 18 hrs by […] cell sorting analysis (reference value: 19.02%); assay type: functional
[11] = tested on: HeLa; assay: Induction of cell cycle arrest in human HeLa cells assessed as accumulation at G0/G1 phase at 8 uM measured after 12 to 18 hrs by […] cell sorting analysis (reference value: 64.31%); assay type: functional
[12] = tested on: HeLa; assay: Induction of cell cycle arrest in human HeLa cells assessed as accumulation at G2/M phase measured after 18 hrs by […] cell sorting analysis; assay type: functional, cell-based
[13] = tested on: HeLa; assay: Induction of cell cycle arrest in human HeLa cells assessed as accumulation at G0/G1 phase at 4 uM measured after 12 to 18 hrs by […] cell sorting analysis (reference value: 64.31%); assay type: functional
[14] = tested on: HeLa; assay: Induction of cell cycle arrest in human HeLa cells assessed as accumulation at G2/M phase at 4 uM measured after 12 to 18 hrs by […] cell sorting analysis (reference value: 16.67%); assay type: functional
[15] = tested on: HeLa; assay: Induction of cell cycle arrest in human HeLa cells assessed as accumulation at S phase at 2 uM measured after 12 to 18 hrs by […] cell sorting analysis (reference value: 19.02%); assay type: functional

Row | SMILES | pIC50 [1] | pIC50 [2] | pIC50 [3] | pIC50 [4] | also measured
1 | COc1cc(-c2nnc(SCC(=O)NCCc3ccc(Cl)cc3)n2N)cc(OC)c1OC | 4.10 | < 4.00 | < 4.00 | 4.40 | –
2 | COc1cc(-c2nnc(SCC(=O)c3ccc(C(F)(F)F)cc3)n2N)cc(OC)c1OC | 5.47 | < 4.00 | < 4.00 | 4.78 | –
3 | COc1cc(-c2nnc(SCC(=O)NCCc3ccccc3)n2N)cc(OC)c1OC | < 4.00 | < 4.00 | 4.09 | < 4.00 | –
4 | O=c1[nH]cc(F)c(=O)[nH]1 [FLUOROURACIL] | 4.24 | – | 4.24 | 4.16 | –
5 | COc1cc(-c2nnc(SCC(=O)Nc3ccccc3C)n2N)cc(OC)c1OC | < 4.00 | < 4.00 | < 4.00 | < 4.00 | –
6 | COc1cc(-c2nnc(SCC(=O)NCc3ccc(Cl)cc3)n2N)cc(OC)c1OC | < 4.00 | < 4.00 | < 4.00 | < 4.00 | –
7 | COc1cc(-c2nnc(SCC(=O)Nc3ccc(C)cc3)n2N)cc(OC)c1OC | 5.32 | < 4.00 | 4.37 | 5.46 | pIC50 [5]: 4.10
8 | COc1cc(-c2nnc(SCC(=O)Nc3ccccc3F)n2N)cc(OC)c1OC | 4.42 | 4.73 | 4.44 | 5.94 | pIC50 [5]: < 4.00
9 | COc1ccc(CCNC(=O)CSc2nnc(-c3cc(OC)c(OC)c(OC)c3)n2N)cc1 | < 4.00 | < 4.00 | 4.13 | < 4.00 | –
10 | COc1cc(NC(=O)CSc2nnc(-c3cc(OC)c(OC)c(OC)c3)n2N)cc(OC)c1OC | < 4.00 | < 4.00 | < 4.00 | < 4.00 | –
11 | COc1cc(-c2nnc(SCC(=O)NCc3ccc(C)cc3)n2N)cc(OC)c1OC | < 4.00 | < 4.00 | 4.03 | < 4.00 | –
12 | COc1cc(-c2nnc(SCC(=O)NCCc3ccc(C)cc3)n2N)cc(OC)c1OC | < 4.00 | < 4.00 | 4.38 | < 4.00 | –
13 | COc1cc(-c2nnc(SCC(=O)c3ccc(F)cc3)n2N)cc(OC)c1OC | 4.68 | 4.04 | < 4.00 | 5.49 | –
14 | COc1ccc(CNC(=O)CSc2nnc(-c3cc(OC)c(OC)c(OC)c3)n2N)cc1OC | < 4.00 | < 4.00 | < 4.00 | < 4.00 | –
15 | COc1cc(-c2nnc(SCC(=O)c3ccccc3)n2N)cc(OC)c1OC | < 4.00 | 5.11 | < 4.00 | 4.28 | –
16 | COc1cc(-c2nnc(SCC(=O)c3cccc(Br)c3)n2N)cc(OC)c1OC | 4.11 | 4.25 | < 4.00 | 5.27 | –
17 | COc1cc(-c2nnc(SCC(=O)c3ccc(Br)cc3)n2N)cc(OC)c1OC | 4.98 | 4.03 | < 4.00 | 5.03 | –
18 | COc1cccc(NC(=O)CSc2nnc(-c3cc(OC)c(OC)c(OC)c3)n2N)c1 | 5.40 | < 4.00 | < 4.00 | 6.17 | pIC50 [5]: 4.00
19 | COc1cc(-c2nnc(SCC(=O)c3ccc(Cl)cc3)n2N)cc(OC)c1OC | 4.88 | < 4.00 | < 4.00 | 5.12 | –
20 | COc1ccc(C(=O)CSc2nnc(-c3cc(OC)c(OC)c(OC)c3)n2N)cc1 | 4.76 | < 4.00 | 4.01 | 5.91 | pIC50 [5]: 4.00
21 | COc1cc(-c2nnc(SCC(=O)c3ccc(C)cc3)n2N)cc(OC)c1OC | 5.53 | < 4.00 | 4.50 | 6.43 | Activity [6]: 32.55%; Activity [7]: 78.81%; pIC50 [5]: 4.00; Activity [8]: 53.39%; Activity [9]: 13.81%; Activity [10]: 17.42%; Activity [11]: 7.37%; Activity [12]: Dose-dependent effect; Activity [13]: 12.41%; Activity [14]: 70.18%; Activity [15]: 14.07%
22 | COc1cc(-c2nnc(SCC(=O)c3ccc(F)c(F)c3)n2N)cc(OC)c1OC | < 4.00 | < 4.00 | < 4.00 | 4.98 | –
23 | COc1cc(-c2nnc(SCC(=O)Nc3ccccc3)n2N)cc(OC)c1OC | 5.08 | 4.30 | 4.42 | 5.76 | –
24 | COc1cc(-c2nnc(SCC(=O)NCCc3ccc(F)cc3)n2N)cc(OC)c1OC | 4.18 | < 4.00 | 4.25 | < 4.00 | –
25 | COc1cc(-c2nnc(SCC(=O)c3ccccc3F)n2N)cc(OC)c1OC | 4.10 | 4.65 | 4.37 | 4.97 | –
